This is an account of results in patent US8980846B2, “Composition containing styraxlignolide A or the aglycone thereof as an active ingredient for preventing or treating asthma” (Korea Research Institute of Bioscience and Biotechnology, priority 2010, dated 2015).

A short description of assay [1]: Body weight in asthma-induced mice. Format: in vivo, Balb/c female mice. As to conditions: homoegonol study. The method, then:
(§1) To prepare bronchial asthma-induced experimental animals, six-week-old Balb/c female mice of mean weight about 20 g were used. After one week of adaptation, individuals which had no observed abnormality on a basic physical examination were targeted. 200 μL of phosphate buffered saline (PBS)(pH 7.4) in which 2 mg of aluminum hydroxide (A8222, Sigma, St. Louis, Mo.) and 20 μg of ovalbumin (A5503, Sigma, St. Louis, Mo.) were suspended was injected into the peritoneal cavity at two-week intervals to result in sensitization. On days 28 to 30 after the first intraperitoneal administration of ovalbumin, inhalation challenge was performed for 30 min with 1% ovalbumin using an ultrasonic atomizer. 24 hours after the last antigen administration, airway hyperresponsiveness was measured. After 24 hours, a lethal dose of pentobarbital (Entobar®, Hanlim Pharm Co., Ltd.) was administered, body weight measurement and bronchotomy were performed, and bronchoalveolar lavage was performed with a total 1.2 mL of physiological saline, and then, samples were collected. […] Eight white mice were used for each group. Experimental groups for homoegonol were a group (hE7.5) in which animals were orally administered with 7.5 mg/kg homoegonol 1 hour prior to ovalbumin inhalation, a group (hE15) in which animals were orally administered with 15 mg/kg homoegonol 1 hour prior to ovalbumin inhalation, and a group (hE30) in which animals were orally administered with 30 mg/kg homoegonol 1 hour prior to ovalbumin inhalation, and five white mice were used for each group.
To determine an effect of styraxlignolide A on reduction in body weight in asthma-induced mice, body weight of each mouse prepared in Example 2 was measured. For statistical analyses for all measurements, means and standard errors (mean±S.E.) according to a number of variables were calculated, and comparison between each group was analyzed by performing a Mann-whitney U test using SPSS 10.0. Statically significance was accepted at p<0.05.
To determine an effect of homoegonol on reduction in body weight in asthma-induced mice, body weight of each mouse prepared in Example 2 was measured. For statistical analyses for all measurements, means and standard errors (mean±S.E.) according to a number of variables were calculated, and comparison between each group was analyzed by performing a Mann-whitney U test using SPSS 10.0. Statically significance was accepted at p<0.05.

Assay [2] relates to airway hyperresponsiveness. The assay is described as follows: Airway hyperresponsiveness, Penh by one chamber plethysmography after methacholine inhalation. Format: in vivo, Balb/c female mice. As to conditions: asthma-induced mice, homoegonol study. The method, then:
as §1, with “Experimental groups for homoegonol were a group (hE7.5) in which animals were orally administered with 7.5 mg/kg homoegonol 1 hour prior to ovalbumin inhalation, a group (hE15) in which animals were orally administered with 15 mg/kg homoegonol 1 hour prior to ovalbumin inhalation, and a group (hE30) in which animals were orally administered with 30 mg/kg homoegonol 1 hour prior to ovalbumin inhalation, and five white mice were used for each group.” left out
The effect of styraxlignolide A on airway hyperresponsiveness caused by asthma occurrence was examined by measuring airway resistance with one chamber plethysmography (All medicus, Seoul, Republic of Korea) and degree of airway resistance was assessed by measuring Penh (enhanced pause) values. The baseline value was measured under a normal respiratory condition, and then, PBS was inhaled using an ultrasonic atomizer for 3 min, and Penh values were measured over 3 min. […] Louis, Mo.) which is used in general methods for diagnosis of bronchial asthma were inhaled and Penh values were measured. Penh value is shown in the following Equation 1, and the resulting Penh value was expressed as a percent increase in Penh after inhalation of each concentration of methacholine. The baseline Penh (saline challenge) was expressed as 100%.
Te: expiratory time (sec), the time from inspiration to the next inspiration
RT: relaxation time, the elapsed time between the beginning of the expiration and the moment when the remaining 30% of the tidal volume has been reached during expiration
PEF: Peak expiration flow
PIF: Peak inspiration flow
To examine the effect of homoegonol on airway hyperresponsiveness caused by asthma occurrence, Penh value was measured according to the method in <Experimental Example 2>.

SMILES strings stand for the structures.

As to `COc1ccc(-c2cc3cc(CCCO)cc(OC)c3o2)cc1OC` [homoegonol], the values for the body weight in assay [1] (7.5 mg/kg PO 1 hour prior to ovalbumin inhalation), in assay [1] (15 mg/kg PO 1 hour prior to ovalbumin inhalation) and in assay [1] (30 mg/kg PO 1 hour prior to ovalbumin inhalation) were 22.10 ± 0.13 g, 21.23 ± 0.43 g and 21.98 ± 0.47 g, respectively. The Penh values in assay [2] (7.5 mg/kg PO, methacholine 0 mg/ml) is recorded as 0.6003 ± 0.0500; in assay [2] (7.5 mg/kg PO, methacholine 12.5 mg/ml), 1.1399 ± 0.1279; in assay [2] (7.5 mg/kg PO, methacholine 25 mg/ml), 1.4067 ± 0.1279; in assay [2] (7.5 mg/kg PO, methacholine 50 mg/ml), 1.4317 ± 0.2094; in assay [2] (15 mg/kg PO, methacholine 0 mg/ml), 0.4538 ± 0.0376; in assay [2] (15 mg/kg PO, methacholine 12.5 mg/ml) it was 0.7989 ± 0.0736. Further, the Penh values in assay [2] (15 mg/kg PO, methacholine 25 mg/ml) was 1.0243 ± 0.1881; in assay [2] (15 mg/kg PO, methacholine 50 mg/ml), 1.0918 ± 0.1914; in assay [2] (30 mg/kg PO, methacholine 0 mg/ml), 0.4736 ± 0.0420; in assay [2] (30 mg/kg PO, methacholine 12.5 mg/ml), 0.6516 ± 0.0914; in assay [2] (30 mg/kg PO, methacholine 25 mg/ml), 0.9515 ± 0.1268; in assay [2] (30 mg/kg PO, methacholine 50 mg/ml), 1.0576 ± 0.1582.
